Measured values reported in article PMC9019904, “AD Informer Set: Chemical tools to facilitate Alzheimer's disease drug discovery” (Alzheimer's & Dementia : Translational Research & Clinical …, 2022).
Values after ≈ are worked out from the molar mass of the structure shown. Counter-ions that a name gives are not always drawn.

Columns and labels:
[1] = test system: BV2 (mouse microglia) cell line; experiment: pHrodo-myelin phagocytosis/cell viability high content imaging assay: viability (cell count, nuclear area, nuclear intensity)
How it was run: (§1)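 BV2 mouse and HMC3 human microglia were treated with compounds at 10 μM for 48 h, with pHrodo-myelin present for the last 20 h. Viability was imaged as total cell count per well and mean nuclear intensity per cell. Values are means of duplicates, normalized to untreated wells as % control.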

[2] = Kinetic solubility in aqueous buffer pH 7.4 by total chemiluminescent nitrogen determination (Analiza); settings: aqueous buffer, pH 7.4, aqueous buffer, kinetic from dmso stock
[3] = test system: HMC3 (human microglia) cell line; experiment: pHrodo-myelin phagocytosis/cell viability high content imaging assay: phagocytosis signal; format: cell-based
How it was run: (§2)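 Cells receive pHrodo-myelin, then are imaged at high content approximately 22 hours later. Phagocytosis signal and viability are captured in the same run. Three measurements are extracted per well.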

[4] = test system: BV2 (mouse microglia) cell line; experiment: as above; format: cell-based
How it was run: as §2

[5] = test system: HMC3 (human microglia) cell line; experiment: pHrodo-myelin phagocytosis/cell viability high content imaging assay: viability (cell count, nuclear area, nuclear intensity)
How it was run: as §1

Row | SMILES | solubility kinetic [2] | Inhibition of human microglial phagocytosis at 10 μM (<70% control) ([3]; 10 μM, HMC3) | Inhibition of human microglial phagocytosis at 10 μM (<70% control) ([3]; HMC3, 10 μM) | further results
1 | CO[C@H]1C[C@@H]2CC[C@@H](C)[C@@](O)(O2)C(=O)C(=O)N2CCCC[C@H]2C(=O)O[C@H]([C@H](C)C[C@@H]2CC[C@@H](O)[C@H](OC)C2)CC(=O)[C@H](C)/C=C(\C)[C@@H](O)[C@@H](OC)C(=O)[C@H](C)C[C@H](C)/C=C/C=C/C=C/1C [Sirolimus] | 19.8 µM (≈ 18.1 µg/mL) | Y (The compound was found to inhibit phagocytosis (response threshold: <70% control) when human immortalized microglial cells were dosed at 10 μM (Y: yes)) | – | Mouse microglial cytotoxicity at 10 μM (<70% control) ([1]; 10 μM, BV2): Y (The compound was found to be cytotoxic (cell count threshold: <70% control) when murine immortalized microglial cells were dosed at 10 μM (Y: yes)); Stimulation of mouse microglial phagocytosis at 10 μM (>150% control) ([4]; 10 μM, BV2): Y (The compound was found to stimulate phagocytosis (response threshold: >150% control) when murine immortalized microglial cells were dosed at 10 μM (Y: yes))
2 | O=C(NC1CCNCC1)c1n[nH]cc1NC(=O)c1c(Cl)cccc1Cl [AT-7519] | 146 µM (≈ 55.8 µg/mL) | – | – | Mouse microglial cytotoxicity at 10 μM (<70% control) ([1]; BV2, 10 μM): Y (The compound was found to be cytotoxic (cell count threshold: <70% control) when murine immortalized microglial cells were dosed at 10 μM (Y: yes)); Stimulation of human microglial phagocytosis at 10 μM (>150% control) ([3]; HMC3, 10 μM): Y (The compound was found to stimulate phagocytosis (response threshold: >150% control) when human immortalized microglial cells were dosed at 10 μM (Y: yes)); Inhibition of mouse microglial phagocytosis at 10 μM (<70% control) ([4]; BV2, 10 μM): Y (The compound was found to inhibit phagocytosis (response threshold: <70% control) when murine immortalized microglial cells were dosed at 10 μM (Y: yes))
3 | OC(c1cc(C23CC4CC(CC(C4)C2)C3)nc2c(Cl)cc(Cl)cc12)C1CCCCN1 (stereo not shown) [NSC305787] | < 1.1 µM | – | Y (The compound was found to inhibit phagocytosis (response threshold: <70% control) when human immortalized microglial cells were dosed at 10 μM (Y: yes)) | Mouse microglial cytotoxicity at 10 μM (<70% control) ([1]; BV2, 10 μM): Y (The compound was found to be cytotoxic (cell count threshold: <70% control) when murine immortalized microglial cells were dosed at 10 μM (Y: yes))
4 | CC(C)(C)c1cnc(CSc2cnc(NC(=O)C3CCNCC3)s2)o1 [SNS-032] | 138 µM (≈ 52.3 µg/mL) | – | – | Human microglial cytotoxicity at 10 μM (<70% control) ([5]; HMC3, 10 μM): Y (The compound was found to be cytotoxic (cell count threshold: <70% control) when human immortalized microglial cells were dosed at 10 μM (Y: yes)); Mouse microglial cytotoxicity at 10 μM (<70% control) ([1]; BV2, 10 μM): Y (The compound was found to be cytotoxic (cell count threshold: <70% control) when murine immortalized microglial cells were dosed at 10 μM (Y: yes)); Stimulation of human microglial phagocytosis at 10 μM (>150% control) ([3]; HMC3, 10 μM): Y (The compound was found to stimulate phagocytosis (response threshold: >150% control) when human immortalized microglial cells were dosed at 10 μM (Y: yes))
5 | C[C@H]1Oc2cc(cnc2N)-c2c(nn(C)c2C#N)CN(C)C(=O)c2ccc(F)cc21 [Lorlatinib] | 172 µM (≈ 69.9 µg/mL) | – | Y (The compound was found to inhibit phagocytosis (response threshold: <70% control) when human immortalized microglial cells were dosed at 10 μM (Y: yes)) | Stimulation of mouse microglial phagocytosis at 10 μM (>150% control) ([4]; BV2, 10 μM): Y (The compound was found to stimulate phagocytosis (response threshold: >150% control) when murine immortalized microglial cells were dosed at 10 μM (Y: yes))
6 | CCCC[C@@H](C=O)NC(=O)[C@H](CC(C)C)NC(=O)OCc1ccccc1 [Calpeptin] | 170 µM (≈ 61.4 µg/mL) | – | Y (The compound was found to inhibit phagocytosis (response threshold: <70% control) when human immortalized microglial cells were dosed at 10 μM (Y: yes)) | Stimulation of mouse microglial phagocytosis at 10 μM (>150% control) ([4]; BV2, 10 μM): Y (The compound was found to stimulate phagocytosis (response threshold: >150% control) when murine immortalized microglial cells were dosed at 10 μM (Y: yes))
7 | C[C@H](NC(=O)c1sccc1OCc1ccc(Cl)cc1)c1ccccc1 [AS1949490] | < 2.1 µM | Y (The compound was found to inhibit phagocytosis (response threshold: <70% control) when human immortalized microglial cells were dosed at 10 μM (Y: yes)) | – | –
8 | O=C(O)CCCc1nc(-c2ccc(Cl)c(Cl)c2)c(-c2ccccc2)o1 [SWE101] | 155 µM (≈ 58.4 µg/mL) | – | Y (The compound was found to inhibit phagocytosis (response threshold: <70% control) when human immortalized microglial cells were dosed at 10 μM (Y: yes)) | Stimulation of mouse microglial phagocytosis at 10 μM (>150% control) ([4]; BV2, 10 μM): Y (The compound was found to stimulate phagocytosis (response threshold: >150% control) when murine immortalized microglial cells were dosed at 10 μM (Y: yes))
9 | CCN(CC)c1ccc(/C=N/NC(=O)c2ccc(O)cc2)cc1 [DY131] | 4.5 µM (≈ 1.4 µg/mL) | – | Y (The compound was found to inhibit phagocytosis (response threshold: <70% control) when human immortalized microglial cells were dosed at 10 μM (Y: yes)) | Mouse microglial cytotoxicity at 10 μM (<70% control) ([1]; BV2, 10 μM): Y (The compound was found to be cytotoxic (cell count threshold: <70% control) when murine immortalized microglial cells were dosed at 10 μM (Y: yes))
10 | C[C@@H](Oc1cc(-c2cnn(C3CCNCC3)c2)cnc1N)c1c(Cl)ccc(F)c1Cl [Crizotinib] | 160 µM (≈ 72.1 µg/mL) | – | Y (The compound was found to inhibit phagocytosis (response threshold: <70% control) when human immortalized microglial cells were dosed at 10 μM (Y: yes)) | Inhibition of mouse microglial phagocytosis at 10 μM (<70% control) ([4]; BV2, 10 μM): Y (The compound was found to inhibit phagocytosis (response threshold: <70% control) when murine immortalized microglial cells were dosed at 10 μM (Y: yes))
11 | CC(Nc1nc(N2CCCC2)nc2ccccc12)c1ccccc1 (stereo not shown) [Importazole] | 42.1 µM (≈ 13.4 µg/mL) | Y (The compound was found to inhibit phagocytosis (response threshold: <70% control) when human immortalized microglial cells were dosed at 10 μM (Y: yes)) | – | Human microglial cytotoxicity at 10 μM (<70% control) ([5]; 10 μM, HMC3): Y (The compound was found to be cytotoxic (cell count threshold: <70% control) when human immortalized microglial cells were dosed at 10 μM (Y: yes)); Mouse microglial cytotoxicity at 10 μM (<70% control) ([1]; 10 μM, BV2): Y (The compound was found to be cytotoxic (cell count threshold: <70% control) when murine immortalized microglial cells were dosed at 10 μM (Y: yes))
12 | CN(C)CCCn1c(N)c(-c2nc3ccccc3[nH]2)c2nc3ccccc3nc21 [INI-43] | 5.9 µM (≈ 2.27 µg/mL) | Y (The compound was found to inhibit phagocytosis (response threshold: <70% control) when human immortalized microglial cells were dosed at 10 μM (Y: yes)) | – | –
13 | Oc1cc(CNC(=S)/C=C/c2cc(O)c(O)c(Br)c2)cc(O)c1O [NT157] | 79.7 µM (≈ 32.9 µg/mL) | – | – | Human microglial cytotoxicity at 10 μM (<70% control) ([5]; 10 μM, HMC3): Y (The compound was found to be cytotoxic (cell count threshold: <70% control) when human immortalized microglial cells were dosed at 10 μM (Y: yes)); Mouse microglial cytotoxicity at 10 μM (<70% control) ([1]; 10 μM, BV2): Y (The compound was found to be cytotoxic (cell count threshold: <70% control) when murine immortalized microglial cells were dosed at 10 μM (Y: yes)); Stimulation of mouse microglial phagocytosis at 10 μM (>150% control) ([4]; 10 μM, BV2): Y (The compound was found to stimulate phagocytosis (response threshold: >150% control) when murine immortalized microglial cells were dosed at 10 μM (Y: yes))
14 | COc1ccc(CCCN2CCC(COC(c3ccccc3)c3ccccc3)CC2)cc1 [UK-78282 HCl] | 796 µM | Y (The compound was found to inhibit phagocytosis (response threshold: <70% control) when human immortalized microglial cells were dosed at 10 μM (Y: yes)) | – | Stimulation of mouse microglial phagocytosis at 10 μM (>150% control) ([4]; 10 μM, BV2): Y (The compound was found to stimulate phagocytosis (response threshold: >150% control) when murine immortalized microglial cells were dosed at 10 μM (Y: yes))
15 | O=C(CCl)c1ccccc1Nc1cccc(C(F)(F)F)c1 [TED-347] | 40.8 µM (≈ 12.8 µg/mL) | – | Y (The compound was found to inhibit phagocytosis (response threshold: <70% control) when human immortalized microglial cells were dosed at 10 μM (Y: yes)) | Stimulation of mouse microglial phagocytosis at 10 μM (>150% control) ([4]; BV2, 10 μM): Y (The compound was found to stimulate phagocytosis (response threshold: >150% control) when murine immortalized microglial cells were dosed at 10 μM (Y: yes))
16 | CNc1nc(C)nc(N[C@H]2CCC[C@@H](C(=O)NCc3ccc(C#N)cc3C(F)(F)F)C2)n1 [GSK2256294A] | 148 µM (≈ 66 µg/mL) | – | Y (The compound was found to inhibit phagocytosis (response threshold: <70% control) when human immortalized microglial cells were dosed at 10 μM (Y: yes)) | –
17 | c1ccc(-c2nn3c(c2-c2ccnc4cc(OCCN5CCOCC5)ccc24)CCC3)nc1 [LY2109761] | 114 µM (≈ 50.6 µg/mL) | – | Y (The compound was found to inhibit phagocytosis (response threshold: <70% control) when human immortalized microglial cells were dosed at 10 μM (Y: yes)) | –
18 | CCn1cc(C(=O)O)c(=O)c2c(N)c(F)c(NC3CCCCC3)cc21 [AS1842856] | 6.5 µM (≈ 2.26 µg/mL) | Y (The compound was found to inhibit phagocytosis (response threshold: <70% control) when human immortalized microglial cells were dosed at 10 μM (Y: yes)) | – | Human microglial cytotoxicity at 10 μM (<70% control) ([5]; 10 μM, HMC3): Y (The compound was found to be cytotoxic (cell count threshold: <70% control) when human immortalized microglial cells were dosed at 10 μM (Y: yes))
19 | O=S(=O)(c1ccccc1)N(CC(F)(F)F)c1ccc(C(O)(C(F)(F)F)C(F)(F)F)cc1 [T 0901317] | 40 µM (≈ 19.3 µg/mL) | Y (The compound was found to inhibit phagocytosis (response threshold: <70% control) when human immortalized microglial cells were dosed at 10 μM (Y: yes)) | – | Stimulation of mouse microglial phagocytosis at 10 μM (>150% control) ([4]; 10 μM, BV2): Y (The compound was found to stimulate phagocytosis (response threshold: >150% control) when murine immortalized microglial cells were dosed at 10 μM (Y: yes))
